Assay results taken from PMC10445084, “Green synthesis, anti-proliferative evaluation, docking, and MD simulations studies of novel 2-piperazinyl quinoxaline derivatives using hercynite sulfaguanidine-SA as a highly efficient and reusable nanocatalyst” (RSC Advances, 2023).

Assays:
HCT116 = test: MTT cytotoxicity assay, HCT116 colon cancer cells; assay type: cell-based, human; settings: 48 h incubation
Protocol: (§1) The tested cells were cultured in medium and dialyzed fetal bovine serum (FBS) and then as suspended germs in Minimum Essential Medium (MEM) were seeded into 96-well plates (at the density of 10 × 10^4 viable cells per well). After 24 h incubation in 5% CO2 at 37 °C and cell attachment. Then the evaluated compounds (at 0.1–250 μg ml^−1 concentrations) were added to the cultured cells and incubated for another 24/48 h.[18,19] After washing of the cell containing plates with […], 20 μl of fresh 4,5-(dimethylthiazol-2-yl)-2,5-diphenyl tetrazolium bromide (MTT) solution (5 mg ml^−1) was added to each well, and incubated with cells for additional 4 h in the same conditions. Then, the medium was discarded and approximately 70 μl of DMSO was used and the resulted solution was vigorously mixed to dissolve and remove the residual tetrazolium and purple formazan crystals in each well. Next, the absorbance of each well was measured at 492 nm and 630 nm (for absorbance of MTT formazan and the reference wavelength respectively) with an ELISA plate reader. Stock solutions of all the tested compounds were prepared in DMSO, while the final dilutions were made with distilled water in order to maintain a maximum concentration of 0.5% DMSO per well. All the evaluated compounds were also tested for cytotoxicity on HFF normal cells at the above-mentioned concentrations and in the same conditions and incubation periods of time. Curves were fit using Graph Pad Prism as described in the Methods section.[19]
(§2) All the evaluated N-Mannich bases (2a–2d, 3a–3h and 4a–4d) were investigated for anti-proliferative activity against two cancer cell lines, HCT116 (human colon cancer) and KOV3 (human ovarian carcinoma). HFF (human foreskin fibroblasts) normal cells were also tested to determine the selectivity of their cytotoxic effects in killing cancer over normal cells. […] After 24 and 48 h of incubation, cell viability was measured by the [3-(4,5-dimethylthiazol-2-yl)-2,5-diphenyltetrazolium bromide] (MTT) colorimetric assay.[34] At the end of each incubation period, the IC50 value and cell viability for each N-Mannich base were calculated in different concentrations (0.15–2.4 μM) and determined graphically as established in Fig. 3. […] A DMSO equivalent control (n = 2 ± SEM) was also included for each cell line tested. Standard graph was plotted by taking concentration of the drug in X axis and relative cell viability in Y axis (cell viability (%) = mean OD/control OD × 100%) in Graph Pad Prism 8.
(§3) 2.5. Biological evaluations: In vitro cytotoxicity
(§4) This rapid assay is based on the reduction of tetrazolium salt to dark blue formazan product by mitochondrial enzymes of living, not dead cells after 24 and 48h exposure of cells to tested compounds at different concentrations. DMSO (with the less concentration than 1%) was the solvent in this biological test. serial concentrations were made by diluting stock solution of each compound (50μM) with culture media (RPMI 1640). […]

SKOV3 = test: MTT cytotoxicity assay, SKOV3 ovarian cancer cells; assay type: cell-based, human; settings: 48 h incubation
Protocol: as §1, §2, §3, §4

[1] = system: HFF (human foreskin fibroblasts) normal cells; test: MTT cytotoxicity assay, HFF normal cells; assay type: cell-based; settings: Fibroblast, 48 h incubation
Protocol: as §1, §2, §3, §4

HCT116 and SKOV3 = test: MTT assay, statements pooled over both cancer cell lines; assay type: cell-based; settings: Homo sapiens, read-out: IC50 on the tested cancer cell lines
Protocol: as §1, with “Then, the medium was discarded and approximately 70 μl of DMSO was used and the resulted solution was vigorously mixed to dissolve and remove the residual tetrazolium and purple formazan crystals in each well.” left out, “Stock solutions of all the tested compounds were prepared in DMSO, while the final dilutions were made with distilled water in order to maintain a maximum concentration of 0.5% DMSO per well.” left out, “Curves were fit using Graph Pad Prism as described in the Methods section.[19]” left out
All the evaluated N-Mannich bases (2a–2d, 3a–3h and 4a–4d) were investigated for anti-proliferative activity against two cancer cell lines, HCT116 (human colon cancer) and KOV3 (human ovarian carcinoma). […] After 24 and 48 h of incubation, cell viability was measured by the [3-(4,5-dimethylthiazol-2-yl)-2,5-diphenyltetrazolium bromide] […]

| SMILES | IC50 (HCT116; Homo sapiens, HCT-116, 48 h) [µM] | IC50 (SKOV3; Homo sapiens, SK-OV-3, 48 h) [µM] | IC50 [1] [µM] | IC50 (HCT116) [µM] | IC50 (SKOV3) [µM] | IC50 (HCT116 and SKOV3) [µM] |
| --- | --- | --- | --- | --- | --- | --- |
| O=C1C(=O)N(CN2CCN(c3cnc4ccccc4n3)CC2)c2ccccc21 [2a, 1-((4-(quinoxalin-2-yl)piperazin-1-yl)methyl) indoline-2,3-dione] | 7.03 | 7.67 | 83.6 | – | – | – |
| O=C1C(=O)N(CN2CCN(c3cnc4ccccc4n3)CC2)c2ccc(Br)cc21 [2b, 5-bromo-1-((4-(quinoxalin-2-yl)piperazin-1-yl)methyl) indoline-2,3-dione] | 5.12 | 5.43 | 58.1 | – | – | – |
| O=C1C(=O)N(CN2CCN(c3cnc4ccccc4n3)CC2)c2ccc(Cl)cc21 [2c, 5-chloro-1-((4-(quinoxalin-2-yl)piperazin-1-yl)methyl) indoline-2,3-dione] | 6.06 | 6.49 | 82 | – | – | – |
| Cc1ccc2c(c1)C(=O)C(=O)N2CN1CCN(c2cnc3ccccc3n2)CC1 [2d, 5-methyl-1-((4-(quinoxalin-2-yl)piperazin-1-yl)methyl) indoline-2,3-dione] | 5 | 5.3 | 58.1 | – | – | – |
| NC(=O)NN=C1C(=O)N(CN2CCN(c3cnc4ccccc4n3)CC2)c2ccccc21 [3a, 2-(2-oxo-1-((4-(quinoxalin-2-yl)piperazin-1-yl)methyl)indolin-3-ylidene) hydrazine-1-carboxamide] | 1.99 | 2.21 | 13.5 | – | – | – |
| NC(=S)N/N=C1/C(=O)N(CN2CCN(c3cnc4ccccc4n3)CC2)c2ccccc21 [3b, 2-(2-oxo-1-((4-(quinoxalin-2-yl)piperazin-1-yl)methyl)indolin-3-ylidene) hydrazine-1-carbothioamide] | 3.03 | 3.38 | 24.6 | – | – | – |
| NC(=O)N/N=C1/C(=O)N(CN2CCN(c3cnc4ccccc4n3)CC2)c2ccc(Br)cc21 [3c, 2-(5-bromo-2-oxo-1-((4-(quinoxalin-2-yl)piperazin-1-yl)methyl)indolin-3-ylidene) hydrazine-1-carboxamide] | 3.35 | 3.52 | 35.9 | – | – | – |
| NC(=S)N/N=C1/C(=O)N(CN2CCN(c3cnc4ccccc4n3)CC2)c2ccc(Br)cc21 [3d, 2-(5-bromo-2-oxo-1-((4-(quinoxalin-2-yl)piperazin-1-yl)methyl)indolin-3-ylidene) hydrazine-1-carbothioamide] | 4.85 | 5.03 | 49.6 | – | – | – |
| NC(=O)N/N=C1/C(=O)N(CN2CCN(c3cnc4ccccc4n3)CC2)c2ccc(Cl)cc21 [3e, 2-(5-chloro-2-oxo-1-((4-(quinoxalin-2-yl)piperazin-1-yl)methyl)indolin-3-ylidene) hydrazine-1-carboxamide] | 4.3 | 4.96 | 37.6 | – | – | – |
| NC(=S)N/N=C1/C(=O)N(CN2CCN(c3cnc4ccccc4n3)CC2)c2ccc(Cl)cc21 [3f, 2-(5-chloro-2-oxo-1-((4-(quinoxalin-2-yl)piperazin-1-yl)methyl)indolin-3-ylidene) hydrazine-1-carbothioamide] | 4.92 | 5.15 | 57.1 | – | – | – |
| Cc1ccc2c(c1)C(=NNC(N)=O)C(=O)N2CN1CCN(c2cnc3ccccc3n2)CC1 [3g, 2-(5-methyl-2-oxo-1-((4-(quinoxalin-2-yl)piperazin-1-yl)methyl)indolin-3-ylidene)hydrazine-1-carboxamide] | 2.92 | 3.25 | 22.8 | – | – | – |
| Cc1ccc2c(c1)/C(=N\NC(N)=S)C(=O)N2CN1CCN(c2cnc3ccccc3n2)CC1 [3h, 2-(5-methyl-2-oxo-1-((4-(quinoxalin-2-yl)piperazin-1-yl)methyl)indolin-3-ylidene) hydrazine-1-carbothioamide] | 3.23 | 3.46 | 26.6 | – | – | – |
| CN(C)C(=N)NC(=N)N=C1C(=O)N(CN2CCN(c3cnc4ccccc4n3)CC2)c2ccccc21 [4a, N’-[4-(quinoxaline-2-yl)-piperazine-1-yl]methyl-1-H-indole,2,3-dion-3-metformin] | 1.23 | 1.51 | 9.11 | – | – | – |
| CN(C)C(=N)NC(=N)/N=C1/C(=O)N(CN2CCN(c3cnc4ccccc4n3)CC2)c2ccc(Br)cc21 [4b, N′-[4-(quinoxaline-2-yl)-piperazine-1-yl]methyl-5-bromo-1-H-indole,2,3-dion-3-metformin] | 0.45 | 0.48 | 6.95 | 0.458 | 0.488 | < 1 |
| CN(C)C(=N)NC(=N)/N=C1/C(=O)N(CN2CCN(c3cnc4ccccc4n3)CC2)c2ccc(Cl)cc21 [4c, N′-[4-(quinoxaline-2-yl)-piperazine-1-yl]methyl-5-chloro-1-H-indole,2,3-dion-3-metformin] | 0.39 | 0.44 | 6.81 | 0.392 | 0.44 | < 1 |
| Cc1ccc2c(c1)/C(=N\C(=N)NC(=N)N(C)C)C(=O)N2CN1CCN(c2cnc3ccccc3n2)CC1 [4d] | 1.54 | 1.72 | 10 | – | – | – |
